# Test results from PMC10592352 (Cell chemical biology, 2023).
# How the values were obtained:
# [1] = ES1e mice, oral, 40 mg/kg; cited from earlier work
# [2] = Concentration reached in aqueous buffer for co-crystallization; assay type: physicochemical; conditions: aqueous buffer with 10% DMSO
# PCNA = PCNA (Homo sapiens, UniProt P12004); test: Thermal denaturation; assay type: binding; conditions: dose-dependent, largest shift
# [3] = tested on: more than 70 cancer cell lines; test: Growth inhibition across cancer cell lines; assay type: cell-based; conditions: read-out: median concentration to achieve 50% growth inhibition (GI50)
# [4] = tested on: human PBMCs, small airway epithelial cells (hSEAC), neural crest stem cells (7SM0032); test: Growth of nonmalignant cells; assay type: cell-based
# [5] = tested on: Salmonella tester strains TA98 and TA100; test: Ames test; conditions: TA98 frameshift, TA100 base pair substitution
# Oral PK study in mice = assay type: in vivo, ES1e/SCID mice
# [6] = GLP-controlled toxicity study; parameters: species or system mice; conditions: mouse, in vivo
# [7] = GLP-controlled toxicity study; parameters: species or system dogs; conditions: dog, in vivo
# [8] = tested on: SK-N-BE(2)c neuroblastoma xenograft; test: Xenograft tumor growth; conditions: 40 mg/kg twice daily
# [9] = tested on: MDA-MB-468 breast cancer xenograft; test: Xenograft tumor growth; conditions: MDA-MB-468 xenograft, 40 mg/kg twice daily, oral
# [10] = tested on: H82 small-cell lung cancer xenograft; test: Xenograft tumor growth; conditions: 40 mg/kg twice daily, oral
# Chain of PCNA (P12004 whole entry): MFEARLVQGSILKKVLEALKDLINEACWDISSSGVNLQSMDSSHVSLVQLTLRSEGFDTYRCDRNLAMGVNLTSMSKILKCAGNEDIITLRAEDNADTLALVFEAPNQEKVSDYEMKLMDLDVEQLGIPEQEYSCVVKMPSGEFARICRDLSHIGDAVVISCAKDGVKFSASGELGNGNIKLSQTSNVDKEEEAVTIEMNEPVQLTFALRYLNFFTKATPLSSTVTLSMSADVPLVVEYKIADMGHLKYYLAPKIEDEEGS
compound,measurement,setting,value
O=C(CNC(=O)c1cccc2ccccc12)Nc1ccccc1Oc1ccccc1 [AOH1160],half-life,[1],3.4 h
COc1cccc(Oc2ccccc2NC(=O)[C@H](CCC(=O)O)NC(=O)c2cccc3ccccc23)c1 [AOH1996LE],concentration in aqueous buffer,[2],4 mM
COc1cccc(Oc2ccccc2NC(=O)CNC(=O)c2cccc3ccccc23)c1 [AOH1996],shift of protein melting curves,PCNA,≤ 1.5 °C
same,GI50,[3],~300 nM
same,concentration not significantly toxic to nonmalignant cells,[4],at least 10 μM
same,mutagenicity in Ames test,[5],does not cause frameshift or base pair substitution
same,absorption into the circulatory system,"Oral PK study in mice; animals, data not shown",~90%
same,increase in area under the curve (AUC) versus AOH1160,"Oral PK study in mice; mice, 40 mg/kg",~4%
same,increase in half-life versus AOH1160,"Oral PK study in mice; mice, 40 mg/kg",~ 27%
same,increase in peak concentration (Cmax) versus AOH1160,"Oral PK study in mice; mice, 40 mg/kg",~40%
same,NOAEL at 4 weeks,[6],≥ 250 mg/kg
same,NOAEL at 4 weeks,[7],75 mg/kg
same,tumor burden versus vehicle,"[8]; SK-N-BE(2)c xenograft, oral",significantly reduced the tumor burden
same,death and body weight in tumor studies,[8]; xenograft-bearing ES1e/SCID mice,did not cause any death or significant weight loss
same,tumor burden versus vehicle,[9],significantly reduced the tumor burden
same,tumor burden versus vehicle,[10],significantly reduced the tumor burden
